Where two headings read alike, the source gives them in different places. Where no end group is shown, it is not given here.
Columns and labels:
[1] = tested on: p21 in HMVEC; assay: Intracellular p21 content in HMVEC (ELISA); format: cell-based, human; details: 15 h, mean ± s.e.m.
Procedure: Signaling assays were slightly adapted to the signaling molecules of interest in this study. HMVEC were stimulated with EGF (20 ng/ml) as a single stimulus or in combination with the peptides CXCL4^47–70 and CXCL4L1^47–70 (0.3 to 10 μg/ml) in order to evaluate their impact on the cell cycle-arresting p21. After 15 hours, the cells were washed three times with ice-cold PBS to stop the stimulation and lysis buffer [1 mM EDTA, 0.5% (v/v) Triton-X, 10 mM NaF, 150 mM NaCl, 1 mM DTT in PBS; pH 7.2–7.4] supplemented with a protease inhibitor cocktail (Sigma) was added. Cell residue was removed from the collected lysates by centrifugation (4°C, 10 min, 1666g). Lastly, the intracellular p21 content was determined by DuoSet® IC ELISA (cat n° DYC1047, R&D Systems) while, in parallel, total protein content was measured in a bicinchoninic acid (BCA) protein assay (Pierce, Rockford, IL).

[2] = tested on: human retinal microvascular endothelial cells (HMVEC); assay: HMVEC MTT proliferation assay; format: cell-based; details: control PI=1, 3 to 4 days, MTT, mean ± s.e.m.; for Proliferation index (PI), baseline (single stimulus): no growth factor
Procedure: First, HMVEC and HLEC were seeded at 5 × 10^3 cells/well in EBM-2 + 1% FCS in a 96-well plate, whereas MDA-MB-231 were starved of growth factors overnight by replacing their growth medium with DMEM (serum-free) prior to seeding the tumor cells at 15 × 10^2 cells/well in DMEM + 1% FCS. As for the rest of the assay, the same protocol applies to all cells. Once adherent, cells were incubated with different concentrations of the peptides CXCL4^47–70 and CXCL4L1^47–70 as single stimuli or in combination with recombinant human EGF (3 ng/ml; R&D Systems, Minneapolis, MN) at 37°C/5% CO2. All conditions were tested in triplicate or quadruplicate. After 3 to 4 days, stimulation medium was removed and a sterile MTT solution was added [0.04 g/100 ml thiazolyl blue (Sigma-Aldrich, St. Louis, MO) in 20% PBS/80% RPMI without phenol red (Lonza)] for 3 to 4 hours. The formed formasan crystals were dissolved by replacing the MTT solution with acidic propanol (0.04 M HCl, 0.1% (v/v) Nondet P-40 in absolute isopropanol) and shaking the plate, shielded from light, for 10 minutes. Optical density (OD) was determined at 570 nm and 630 nm. The obtained ODs were processed to proliferation indexes (PI), expressed relative to appropriate buffer controls, i.e. ΔOD570–630X over ΔOD570–630CO.

[3] = tested on: endothelial cell; details: cited from earlier work
Procedure: We investigated whether CXCL4^47–70 and CXCL4L1^47–70 counteracted other growth factors with similar efficiency. Consistent with previous work, both CXCL4^47–70 and CXCL4L1^47–70 (0.4 μg/ml) reduced FGF2-induced GM7373 prolifera ...

[4] = tested on: CD31-positive vessels of MDA-MB-231 tumors; assay: CD31 immunohistochemistry of resected tumors (vascularization); format: in vivo, mice; details: 2.5 μg intratumoral 3×/week; data not shown
Procedure: The impact of peptide treatment on the tumor vasculature was evaluated by quantification of immunohistochemically stained CD31-positive vessels. […] This inconsistency between our observations in vitro and in vivo evokes the question which alternative mechanisms may contribute to the anti-tumoral impact of peptide treatment as evidenced in the MDA-MB-231 tumor model.

[5] = SPR (BIAcore) binding to immobilized heparin; details: for Dissociation rate (Koff): BIAcore X100, HBS-EP+ pH 7.4; for Association rate (Kon): BIAcore X100, HBS-EP+ pH 7.4, 2 min injection, 30 μl/min
Procedure: Next, we exploited surface plasmon resonance (SPR) analysis to assess the capacity of CXCL4^47–70 and CXCL4L1^47–70 to bind heparin immobilized to a BIAcore sensorchip, a model that mimics the binding of proteins to heparan sulphate proteoglycans associated to the cell surface. When increasing concentrations of the two peptides were injected onto the heparin surface, sensorgram overlays (not shown) allowed the calculation of association (Kon) and dissociation (Koff) rates and of Kd (as Koff/Kon ratio, Table 1). Also, equilibrium binding data were used to generate the saturation curves shown in Figure 8A and used to calculate a Kd value independently from kinetic parameters (Table 1).
SPR measurements were performed on a BIAcore X100 instrument (GE-Healthcare, Milwaukee, WI). Research-grade SA sensorchip was used. For the study of the interaction of heparin with CXCL4^47–70 and CXCL4L1^47–70, heparin was immobilized to a BIAcore sensorchip. Briefly, 13600 Da unfractionated heparin was biotinylated at its reducing end and immobilized onto the SA streptavidin-coated sensorchip. These experimental conditions allowed the immobilization of 200 resonance units (RU) equal to 14.7 fmol/mm^2 of heparin. A sensorchip coated with streptavidin alone was used as a reference and for blank subtraction. The peptides were dissolved in 10 mM HEPES buffer pH 7.4 containing 150 mM NaCl, 3 mM EDTA, 0.05% surfactant P20 (HBS-EP+) and injected at different concentrations over the heparin or streptavidin surfaces for 2 min at a flow rate of 30 μl/min and then washed until dissociation was observed. After each run, the sensorchip was regenerated by injection of HBS-EP+ containing 2.0 M NaCl.

[6] = tested on: bovine aortic endothelial cells (GM7373); assay: GM7373 proliferation assay (cell counting); format: cell-based; details: peptide 0.4 μg/ml, 0.4% FCS, 24 h, cell counts, mean ± s.e.m., n=3; for GM7373 proliferation relative to EGF alone (100%): EGF 10 ng/ml; for GM7373 proliferation relative to FGF2 alone (100%): FGF2 10 ng/ml
Procedure: Cell proliferation assays on GM7373 cells were performed as described. Briefly, subconfluent cultures of GM7373 cells were seeded in 96-well dishes at 65 × 10^3 cells/cm^2. After 16 h, cells were incubated in triplicate in fresh medium containing 0.4% FCS plus FGF1 (30 ng/ml), FGF2 (10 ng/ml), FGF8 (30 ng/ml), EGF (10 ng/ml), VEGF (30 ng/ml), 12-O-tetradecanoyl phorbol 13-acetate (TPA, 10 ng/ml) or 10% FCS in the absence or in the presence of 400 ng/ml of CXCL4^47–70 or CXCL4L1^47–70. After 24 h, cells were trypsinized and counted in a Bürker chamber. Data were expressed as percentages of cell proliferation measured in the presence of the mitogenic stimulus alone.

[7] = peptide 3 μg/ml + EGF 20 ng/ml, n=9, p=0.039 (CXCL4^47–70), n=5, p=0.033 (CXCL4L1^47–70) versus EGF
[8] = peptide 0.3 μg/ml + EGF 3 ng/ml, n=7, p=0.015 (CXCL4^47–70), p=0.041 (CXCL4L1^47–70) versus EGF
[9] = peptide 1 μg/ml + EGF 3 ng/ml, n=7, p=0.003 (CXCL4^47–70), p=0.015 (CXCL4L1^47–70) versus EGF
[10] = peptide 1 μg/ml, n=8, p=0.011 (CXCL4^47–70), p=0.043 (CXCL4L1^47–70)
[11] = peptide 3 μg/ml + EGF 3 ng/ml, n=6, p=0.008 (CXCL4^47–70), n=7, p=0.041 (CXCL4L1^47–70) versus EGF
[12] = peptide 3 μg/ml, n=6, p=0.001 (CXCL4^47–70), n=7, p=0.009 (CXCL4L1^47–70)
[13] = BIAcore X100, HBS-EP+ pH 7.4, Scatchard plot analysis of equilibrium binding data, read-out: Kd at equilibrium
[14] = BIAcore X100, HBS-EP+ pH 7.4, from Koff/Kon ratio, read-out: Kd (Koff/Kon)
[15] = BIAcore X100, kinetic and equilibrium values taken together, read-out: Kd (range over both methods)

| Substance | intracellular p21 relative to control (100%), with EGF [1, 7] [%] | Proliferation index (PI), EGF-stimulated [2, 8] | Proliferation index (PI), EGF-stimulated [2, 9] | Proliferation index (PI), baseline (single stimulus) [2, 10] | Proliferation index (PI), EGF-stimulated [2, 11] | Proliferation index (PI), baseline (single stimulus) [2, 12] | block of FGF2-induced endothelial cell motility and proliferation [3] | vascularization of resected tumors (CD31-positive vessels) [4] | Dissociation rate (Koff) [5] [s⁻¹] | Association rate (Kon) [5] [M⁻¹ s⁻¹] | Kd [5, 13] [µM] | Kd [5, 14] [µM] | Kd [5, 15] [µM] | GM7373 proliferation relative to EGF alone (100%) [6] [%] | GM7373 proliferation relative to FGF2 alone (100%) [6] [%] | intracellular p21 relative to control (100%), with EGF ([1]; peptide 1 μg/ml + EGF 20 ng/ml, n=6, p=0.039 versus EGF) [%] | intracellular p21 relative to control (100%), with EGF ([1]; peptide 10 μg/ml + EGF 20 ng/ml, n=5, p=0.005 versus EGF) [%] |
| --- | --- | --- | --- | --- | --- | --- | --- | --- | --- | --- | --- | --- | --- | --- | --- | --- | --- |
| CXCL4L1^47–70: synthetic human carboxy-terminal peptide restricted to the last 24 amino acids of CXCL4L1, Fmoc chemistry | 115.06 ± 17.41 | 1.17 ± 0.06 | 1.05 ± 0.07 | 0.86 ± 0.12 | 0.98 ± 0.13 | 0.70 ± 0.09 | retained the ability to block FGF2-induced endothelial cell motility and proliferation | neither CXCL4^47–70, nor CXCL4L1^47–70 was reflected by a reduced vascularization | 0.053 | 52000 | 1.2 | 1 | 1 to 1.2 | 49 ± 1 | 47 ± 4 | – | – |
| CXCL4^47–70: synthetic human carboxy-terminal peptide restricted to the last 24 amino acids of CXCL4, Fmoc chemistry (NGRKICLDLQAPLYKKIIKKLLES; not fully specified (N-terminus)) | 100.02 ± 8.67 | 1.13 ± 0.07 | 0.96 ± 0.06 | 0.77 ± 0.08 | 0.93 ± 0.07 | 0.59 ± 0.09 | retained the ability to block FGF2-induced endothelial cell motility and proliferation | neither CXCL4^47–70, nor CXCL4L1^47–70 was reflected by a reduced vascularization | 0.011 | 670000 | 0.072 | 0.016 | 0.016 to 0.072 | 74 ± 3 | 28 ± 10 | 106.90 ± 15.12 | 125.51 ± 15.05 |

Reference: publication PMC4279419, “Angiostatic, tumor inflammatory and anti-tumor effects of CXCL4^47–70 and CXCL4L1^47–70 in an EGF-dependent breast cancer model” (Oncotarget, 2014)
